Data taken from patent US20070249590A1, “Substituted indolo[2,3-a]pyrrolo[3,4-c]carbazole compounds useful in treating kinase disorders” (priority 2005, published 2007).
pIC50: −log10 of the molar value.

What follows are molecules tested against T1, JAK3 (JH1 and JH2 domain) (Homo sapiens, UniProt P52333) (assay: JAK3 Kinase Assay (ELISA of peptide substrate phosphorylation)). Conditions: purified JAK3 enzyme, 10 μM ATP, biotinylated peptide substrate, 1 hour at room temperature.
T1 sequence (P52333 521-1111 limits assumed): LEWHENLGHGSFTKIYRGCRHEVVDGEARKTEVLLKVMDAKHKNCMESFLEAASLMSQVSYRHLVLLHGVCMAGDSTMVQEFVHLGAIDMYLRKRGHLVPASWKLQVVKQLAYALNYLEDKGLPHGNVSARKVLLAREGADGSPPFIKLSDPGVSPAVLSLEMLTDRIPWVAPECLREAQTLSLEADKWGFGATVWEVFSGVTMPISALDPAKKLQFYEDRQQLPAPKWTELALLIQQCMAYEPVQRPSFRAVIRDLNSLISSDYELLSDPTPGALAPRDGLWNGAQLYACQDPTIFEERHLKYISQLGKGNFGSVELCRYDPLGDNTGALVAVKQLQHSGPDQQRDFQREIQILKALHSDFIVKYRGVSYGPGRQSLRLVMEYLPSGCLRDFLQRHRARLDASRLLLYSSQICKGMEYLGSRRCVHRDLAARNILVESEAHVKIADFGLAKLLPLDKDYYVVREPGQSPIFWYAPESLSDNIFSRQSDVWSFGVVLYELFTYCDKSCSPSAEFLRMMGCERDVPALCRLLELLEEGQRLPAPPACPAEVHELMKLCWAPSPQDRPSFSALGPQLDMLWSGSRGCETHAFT
Type: biochemical
Experimental: JAK3 enzyme activity was assayed relative to enzyme phosphorylation using the method described herein.
Sf21 cells derived from the ovarian tissue of the fall armyworm Spodotera frugiperda were obtained from Pharmingen (San Diego, Calif.) and maintained at a temperature of about 26-28° C. in 1 l Bellco spinner flasks at 60-90 rpm. Cell viability was maintained at 95-100%, as determined by a tryptan blue dye exclusion test.
Sf21 cells were infected with a baculovirus expression vector for JAK3 (JH1 and JH2 domain). After 48 hours of infection, cells were harvested and lysed in Tris-saline (pH 7.6) containing 2% NP-40 and a combination of protease inhibitors (Aprotinin, Pepstatin A, Pefabloc, E-64, Leupeptin, and Benzamidine) on ice for 45 minutes.
The JAK3 enzyme was purified from the lysate using glutathione sepharose beads and the enzyme activity was assessed in Costar flat bottom EIA/RIA 96 well plates. The plates were coated with Neutravidin (110 μL) (Pierce Neutravidin Biotin-binding Protein 31000; 1 mg/mL 1:100) diluted in PBS for 1 hour at room temperature. The plates were washed with PBS-0.1% Tween (3 times) to remove unbound Neutravidin, then 1% BSA (150 NIL) in PBS was added to each well to block non-specific binding. The plates was incubated for 1 hour at room temperature and stored at −80° C. until use.
JAK3 enzyme solution (48 μL) in 1.25×TK buffer (62.5 mM HEPES pH 7.5, 12.5 mM MgCl2) containing DTT (42 mM) (Sigma, St. Louis, Mo.) was added to each well of a polypropylene 96 well plate.
A test compound (5 μL) diluted in DMSO (48 μL) and biotinylated peptide enzyme substrate (5 μg diluted in TK buffer containing 10 μM ATP) were added to each well using the double dispense feature of a multichannel electronic biohit. Control wells received DMSO vehicle (5 μL). The contents of the wells were mixed for approximately 8 seconds using a multitube vortexer and the reaction mixture was incubated for 1 hour at room temperature.
After incubation, an aliquot of reaction mixture (90 μL) was transferred into a washed Neutravidin coated plate. The plate was incubated for 15 minutes at room temperature and washed 3 times with PBS-T. PY99 anti-phosphotyrosine antibody (100 μL/well) (Santa Cruz #sc-7020HRP diluted 1:6000 in 1× antibody buffer) was added into each well and the plate was incubated for 40 minutes at room temperature. The antibody buffer contained 10% BSA, 100 mM Tris (pH 7.5), 1M NaCl and 1% Tween 20. The plate washed 3 times with PBS-T, then TMB (100 pLXSigma, St. Louis, Mo.) was added to the each well. The plate was incubated for another 40 mins at room temperature in the dark. The reaction was stopped by the addition of 1M H2SO4 (50 μL/well) and the optical density was read at 450/650 nm.
Test compounds were assayed in triplicate at 16 concentrations at half-log dilutions starting at 200 μM. A maximum and minimum signal for the assay was determined on each plate. The percent inhibition of a test compound was calculated according to the formula [formula]
For a series of test concentrations, the IC50 was derived by graphing percent inhibition against the log of the concentrations tested for a given compound. For those compounds without an IC50, the percent inhibition results are shown at a test concentration of 1 μM.
With `O=C1NCc2c1c1c3ccccc3n3c1c1c2c2ccccc2n1CC(=C(CO)CO)C3` [Cpd 24, 12,13-(2-{[1,1-bis-(dihydroxymethyl)]methylidene}-propan-1,3-yl)-6,7,12,13-tetrahydro-5-oxo-5H-indolo[2,3-a]pyrrolo[3,4-c]carbazole] the pIC50 was 7.43.
`COCCNCc1ccc2c(c1)c1c3c(c4c5ccccc5n5c4c1n2CC(O)C(O)C5)CNC3=O` (centres unmarked) [Cpd 198, 3-[(2-methoxy-ethyl)aminomethyl]-12,13-(2,3-dihydroxy-butan-1,4-yl)-6,7,12,13-tetrahydro-5-oxo-5H-indolo[2,3-a]pyrrolo[3,4-c]carbazole] gave a pIC50 of 6.45.
In the case of `CN(C)CCCN1CCN(C(=O)OC2Cn3c4ccccc4c4c5c(c6c7ccccc7n(c6c43)CC2O)C(=O)NC5=O)CC1` (centres unmarked) [Cpd 97, 12,13-(2-{[4-(3-dimethylamino-prop-1-yl)piperazin-1-yl]carbonyloxy}-3-hydroxy-butan-1,4-yl)-12,13-dihydro-5,7-dioxo-6H-indolo[2,3-a]pyrrolo[3,4-c]carbazole], the pIC50 was 6.76.
In the case of `COc1ccc(CCNC(=O)OC2CCn3c4ccccc4c4c5c(c6c7ccccc7n(c6c43)C2)C(=O)NC5=O)cc1OC` (centres unmarked) [Cpd 49, 12,13-(2-{[2-(3,4-dimethoxy-phenyl)ethyl]carbamoyloxy}-butan-1,4-yl)-12,13-dihydro-5,7-dioxo-6H-indolo[2,3-a]pyrrolo[3,4-c]carbazole], the pIC50 was 7.41.
In the case of `O=C1NC(=O)c2c1c1c3ccccc3n3c1c1c2c2ccccc2n1CC(OC(=O)N1CCN(C(c2ccccc2)c2ccccc2)CC1)C(O)C3` (centres unmarked) [Cpd 103, 12,13-{2-[(4-benzhydryl-piperazin-1-yl)carbonyloxy]-3-hydroxy-butan-1,4-yl}-12,13-dihydro-5,7-dioxo-6H-indolo[2,3-a]pyrrolo[3,4-c]carbazole], the pIC50 was 6.36.
`COCCNC(=O)OCC1(O)Cn2c3ccccc3c3c4c(c5c6ccccc6n(c5c32)C1)C(=O)NC4` (centres unmarked) [Cpd 136, 12,13-{2-hydroxy-2-[(2-methoxy-ethyl)carbamoyloxymethyl]-propan-1,3-yl}-6,7,12,13-tetrahydro-5-oxo-5H-indolo[2,3-a]pyrrolo[3,4-c]carbazole] was tested, and the pIC50 was 6.91.
`O=C1NC(=O)c2c1c1c3ccccc3n3c1c1c2c2ccccc2n1CC(O)(C(=O)N1CCC(O)CC1)C(O)C3` (centres unmarked) [Cpd 132, 12,13-{2-[(4-hydroxy-piperidin-1-yl)carbonyl]-2,3-dihydroxy-butan-1,4-yl}-12,13-dihydro-5,7-dioxo-6H-indolo[2,3-a]pyrrolo[3,4-c]carbazole] showed a pIC50 of 7.55.
Molecule `O=C1NC(=O)c2c1c1c3ccccc3n3c1c1c2c2ccccc2n1CC(OC(=O)N1CCN(c2ccccn2)CC1)C(O)C3` (centres unmarked) [Cpd 112, 12,13-{2-[(4-pyridin-2-yl-piperazin-1-yl)carbonyloxy]-3-hydroxy-butan-1,4-yl}-12,13-dihydro-5,7-dioxo-6H-indolo[2,3-a]pyrrolo[3,4-c]carbazole] has a pIC50 of 5.97.
`O=C(NC1CCN(Cc2ccccc2)CC1)OC1CCn2c3ccccc3c3c4c(c5c6ccccc6n(c5c32)CC1)C(=O)NC4` (centres unmarked) [Cpd 187, 12,13-{3-[(1-benzyl-piperidin-4-yl)carbamoyloxy]-pentan-1,5-yl}-6,7,12,13-tetrahydro-5-oxo-5H-indolo[2,3-a]pyrrolo[3,4-c]carbazole] gave a pIC50 of 5.52.
With `O=C1NCc2c1c1c3ccccc3n3c1c1c2c2ccccc2n1CC(O)(COC(=O)N1CCN(c2ccc(O)cc2)CC1)C3` (centres unmarked) [Cpd 137, 12,13-(2-hydroxy-2-{[4-(4-hydroxy-phenyl)piperazin-1-yl]carbonyloxymethyl}-propan-1,3-yl)-6,7,12,13-tetrahydro-5-oxo-5H-indolo[2,3-a]pyrrolo[3,4-c]carbazole] the pIC50 was 6.76.
For `O=C1NC(=O)c2c1c1c3cc(-c4cnccn4)ccc3n3c1c1c2c2ccccc2n1CC(O)CC3` (centres unmarked) [Cpd 35, 3-pyrazin-2-yl-12,13-(2-hydroxy-butan-1,4-yl)-12,13-dihydro-5,7-dioxo-6H-indolo[2,3-a]pyrrolo[3,4-c]carbazole], the pIC50 was 7.89.
With `COc1ccc(CCNC(=O)OC2Cn3c4ccccc4c4c5c(c6c7ccccc7n(c6c43)CC2O)C(=O)NC5=O)cc1OC` (centres unmarked) [Cpd 84, 12,13-(2-{[2-(3,4-dimethoxy-phenyl)ethyl]carbamoyloxy}-3-hydroxy-butan-1,4-yl)-12,13-dihydro-5,7-dioxo-6H-indolo[2,3-a]pyrrolo[3,4-c]carbazole] the pIC50 was 6.73.
In the case of `O=C1NC(=O)c2c1c1c3ccccc3n3c1c1c2c2ccccc2n1CC(O)(C(=O)NCc1ccncc1)C(O)C3` (centres unmarked) [Cpd 117, 12,13-{2-[(pyridin-4-ylmethyl)carbamoyl]-2,3-dihydroxy-butan-1,4-yl}-12,13-dihydro-5,7-dioxo-6H-indolo[2,3-a]pyrrolo[3,4-c]carbazole], the pIC50 was 7.82.
`O=C(NCCCN1CCOCC1)OC1CCn2c3ccccc3c3c4c(c5c6ccccc6n(c5c32)C1)C(=O)NC4=O` (centres unmarked) [Cpd 42, 12,13-{2-[(3-morpholin-4-yl-prop-1-yl)carbamoyloxy]-butan-1,4-yl}-12,13-dihydro-5,7-dioxo-6H-indolo[2,3-a]pyrrolo[3,4-c]carbazole] showed a pIC50 of 6.83.
`Nc1ccc2c(c1)c1c3c(c4c5ccccc5n5c4c1n2CC(O)C(O)C5)CNC3=O` (centres unmarked) [Cpd 192, 3-amino-12,13-(2,3-dihydroxy-butan-1,4-yl)-6,7,12,13-tetrahydro-5-oxo-5H-indolo[2,3-a]pyrrolo[3,4-c]carbazole] was tested, and the pIC50 was 8.15.
Molecule `O=C1NCc2c1c1c3ccccc3n3c1c1c2c2ccccc2n1CC(O)C(O)C3` (centres unmarked) [Cpd 14, 12,13-(2,3-dihydroxy-butan-1,4-yl)-6,7,12,13-tetrahydro-5-oxo-5H-indolo[2,3-a]pyrrolo[3,4-c]carbazole] has a pIC50 of 8.15.
`COc1ccc(CCNC(=O)OCC2(O)Cn3c4ccccc4c4c5c(c6c7ccccc7n(c6c43)C2)C(=O)NC5)cc1OC` (centres unmarked) [Cpd 153, 12,13-(2-hydroxy-2-{[2-(3,4-dimethoxy-phenyl)ethyl]carbamoyloxymethyl}-propan-1,3-yl)-6,7,12,13-tetrahydro-5-oxo-5H-indolo[2,3-a]pyrrolo[3,4-c]carbazole] gave a pIC50 of 7.77.
Work on `CN1CCC(Nc2ccc3c(c2)c2c4c(c5c6ccccc6n6c5c2n3CC(O)C(O)C6)CNC4=O)CC1` (centres unmarked) [Cpd 204, 3-[(1-methyl-piperidin-4-yl)amino]-12,13-(2,3-dihydroxy-butan-1,4-yl)-6,7,12,13-tetrahydro-5-oxo-5H-indolo[2,3-a]pyrrolo[3,4-c]carbazole] yielded a pIC50 of 6.77.
With `O=C1NC(=O)c2c1c1c3ccccc3n3c1c1c2c2ccccc2n1CC(OC(=O)N1CCCNCC1)C(O)C3` (centres unmarked) [Cpd 111, 12,13-{2-[(hexahydro-1H-1,4-diazepin-1-yl)carbonyloxy]-3-hydroxy-butan-1,4-yl}-12,13-dihydro-5,7-dioxo-6H-indolo[2,3-a]pyrrolo[3,4-c]carbazole] the pIC50 was 6.34.
`O=C1NC(=O)c2c1c1c3ccccc3n3c1c1c2c2ccccc2n1CC(OC(=O)N1CCN(c2ccc(O)cc2)CC1)CC3` (centres unmarked) [Cpd 58, 12,13-(2-{[4-(4-hydroxy-phenyl)piperazin-1-yl]carbonyloxy}-butan-1,4-yl)-12,13-dihydro-5,7-dioxo-6H-indolo[2,3-a]pyrrolo[3,4-c]carbazole] was tested, and the pIC50 was 7.01.
